Entries after “also recorded” stand apart in the source; their conditions may differ.

Data set [1] is described as follows: Comparative solubility in skin cream with different solubilization mixtures. The data set is classed as physicochemical. The note with it: summary of Tables V and VI.
From the text: The relative scale used was from 1 = completely nonsoluble, precipitate
formed, to 10 = completely soluble, no precipitate or suspension visible.
In all cases the carotene was mixed with Solvent #1 prior to mixing with
Solvent #2. This mixture was in turn combined with LUBRIDERM skin cream,
In another data set the test system is human oral cancer cells. The note with it: in vitro; cited from earlier work.
The subject of data set [2] is DMBA induced squamous cell carcinoma. The note with it: topical […] solution in mineral oil; cited from earlier work.
Data set [3] in a line: Color matching with COLOR-AID swatchbook. The data set is classed as physicochemical. The note with it: 1% β carotene, ⊕ darker, ⊖ paler than swatch.
Method: Creams containing cyclodextrin-complexed β carotene and uncomplexed β carotene were prepared by adding the respective carotene preparation to one or more of several different commercially available creams. The commercial creams used include LUBRIDERM, NOXZEMA, POND'S hand cream, POND'S Cold Cream, and NIVEA moisturizing cream. The amount of complex needed to achieve a β carotene content of 1% by weight was calculated using the measurement of percent loading for the particular complex, and this amount was added to the cream as purchased. Control samples contained 1% uncomplexed β carotene by weight of the cream. […] Since the amount of β carotene by weight is the same in all the cream samples, including those to which β carotene was added in pure form and those to which the β carotene was added in the form of β carotene/cyclodextrin complex, differences in color intensity and hue are not ascribable to a simple dilution effect.
The color differences among complexed and uncomplexed β carotene and among creams containing complexed vs. uncomplexed β carotene are here characterized according to the COLOR-AID swatchbook.
In the present case, color matching was performed under fluorescent lighting of the full-spectrum type.
For data set [4] the following is noted: visual.
Method: Creams containing cyclodextrin-complexed β carotene and uncomplexed β carotene were prepared by adding the respective carotene preparation to one or more of several different commercially available creams. The commercial creams used include LUBRIDERM, NOXZEMA, POND'S hand cream, POND'S Cold Cream, and NIVEA moisturizing cream. The amount of complex needed to achieve a β carotene content of 1% by weight was calculated using the measurement of percent loading for the particular complex, and this amount was added to the cream as purchased. Control samples contained 1% uncomplexed β carotene by weight of the cream.
Data set [5] in a line: Color and texture of prepared compositions and creams. Format: physicochemical.
Method: 50 milligrams of β carotene were added to 50 milligrams of vitamin E (as DL-alpha tocopherol acid succinate). To this mixture were added 50 milligrams of β cyclodextrin and 50 milligrams of gelatin derived from bovine skin (bloom 225, type III). […] Next, 1 milliliter of D20 and 1 milliliter of glycerine were added, in that order.
The mixture #1 was then added to 1 milliter of a commercial skin cream, LUBRIDERM, which contains water, mineral oil, petrolatum, sorbitol, lanolin, lanolin alcohol, triethanolamine, cetyl alcohol, butylparaben, methylparaben, propylparaben, and sodium chloride, in order of descending amount.
50 milligrams of β carotene were mixed thoroughly with 50 milligrams of β cyclodextrin. One milliliter of distilled H2 O (d-H2 O) was added to the mixture of carotene and cyclodextrin. […] Fifty milligrams of Vitamin E succinate (crystalline) were then added. […] Next, 1 milliliter of glycerine was added, followed by 150 milligrams of gelatin. […] The same skin cream base was added to composition 2 as in example 1, in the same amount.
Glycerine (1 milliliter) and/or gelatin (50 mg) were added to the mixture, followed by 1 milliliter of LUBRIDERM brand skin cream.
Data set [6] can be described thus: Absorbance loss at 450 nm of β-carotene/alpha-cyclodextrin with cysteine after 21 days. Format: physicochemical. To be noted: After 21 days at ambient conditions; UV-Vis.
Method: As further described below, various amounts of cysteine were used. Spectroscopic measurements were then made of Samples C, D, E, F (Table VIII), and of a sample consisting of uncomplexed beta-carotene, which was used as a control group.
The results were measured as percent of absorbance loss at 450 nm. The percent of absorbance loss measures the intensity of absorbance. In turn, intensity of absorbance is directly correlated to oxidation and decomposition of beta-carotene.
A further data set deals with oral carcinoma cell. To be noted: in at least some cases; cited from earlier work.
The nature of data set [7]: Color matching with COLORCURVE swatches. The data set is classed as physicochemical. To be noted: cream A, same set of samples as Table I.
From the text: In the COLORCURVE system, colors are scaled on a 3-dimensional scheme. One dimension, which for convenience here will be termed the vertical dimension, is value, defined more or less according to Munsell (op cit). The two dimensions of each plane are hue and intensity or saturation. The "hues" of the COLORCURVE system are the four primary colors of visible light: red, yellow, green and blue. Like the COLOR-AID system, the COLORCURVE system provides coded swatches for color matching. Each coded color in the COLORCURVE system is defined by light reflectance values, tristimulus values, and L*a*b* values, these being colorimetric parameters known in the art.
In the COLORCURVE code, the first number specifies the level, that is, the value of the equivalent gray tone; the level numbers increase from darker values to lighter values. For example, Level 55 colors are paler than Level 50 colors, which in turn are paler than Level 45 colors. The second and third codes each consist of a letter followed by a single-digit number. The letter identifies one of four hues (R-red, Y-yellow, B-blue, and G-green, these being the four "primary" colors in light), and the number describes the intensity of the hue. Thus, L40 R3 Y2 specifies value Level 40, red hue saturation level of 3, and yellow hue saturation level of 2 (where increasing numbers from 1 to 8 designate increasing saturation levels). […]
Data set [8] in a line: Aqueous solution of carotenoid with cyclodextrin, visible precipitate. Format: physicochemical.
Method: Twenty milligrams of β carotene is mixed with eighty milligrams (abbreviated "mg" hereinafter) of β cyclodextrin. The mixture is then added to 0.5 milliliters (hereinafter abbreviated "ml") of a buffered saline solution, and thoroughly mixed.
Data set [9] deals with carcinogen-induced epidermoid carcinomas. The note with it: in vivo; cited from earlier work.
A further data set has as its system colon tumors. The note with it: animals; cited from earlier work.
The next data set concerns colon polyps. The note with it: humans; cited from earlier work.

On to `CC1=C(/C=C/C(C)=C/C=C/C(C)=C/C=C/C=C(C)/C=C/C=C(C)/C=C/C2=C(C)CCCC2(C)C)C(C)(C)CCC1` [β-carotene], for which the “effect of mixing with βCD on solubility in LUBRIDERM skin cream” value in data set [1] is “significantly increases its solubility”. In addition, in the data set with human oral cancer cells, the “inhibition of human oral cancer cells” value is given as “inhibit human oral cancer cells in vitro” and the “selective killing of tumor cells over normal cells” value is reported as “preferentially kill tumor cells over normal (non-tumor) cells”. The “number and sizes of tumors” value in data set [2] was “reduced the number and sizes of tumors”. In data set [3], the “COLOR-AID code, LUBRIDERM” value was “RO-P2-1⊕”. In addition, the “COLOR-AID code, PONDS” value in data set [3] (PONDS hand/skin cream) was “O-S1⊕”. Moreover, the color of powder entry in data set [4] is reported as “deep, red to orange-red color”. The “texture of composition or cream” value in [5] (final cream) is given as “does not produce undesirable color changes or grainy textures”. For the same molecule, the “appearance of skin cream with β carotene (previous attempts)” value in data set [5] (uncomplexed β carotene) is recorded as “unpleasant mustard-like appearance”. Moreover, in data set [6], the “% Abs. Loss (at 450 nm)” value was found to be 42%. In addition, in the data set with oral carcinoma cell, the “tumor inhibitory effects vs Vitamin A” value is on record as “superior to Vitamin A in its tumor inhibitory effects”. In addition, in [7], the “COLORCURVE code, A” value was “L50 R3YS; also recorded: L55 R3YS”. In data set [8] (20 mg β carotene with 80 mg β cyclodextrin, 0.5 ml buffered saline into 100 ml distilled water), the “visible precipitate in aqueous solution” value is recorded as “clear solution with no visible precipitate”. Also, the “visible precipitate in aqueous solution” value in [8] (lesser amount or no cyclodextrin) was “red-brown precipitate”.
Consider `Cc1c(C)c2c(c(C)c1O)CCC(C)(CCCC(C)CCCC(C)CCCC(C)C)O2` (stereo not drawn) [Vitamin E (alpha tocopherol), alpha tocopherol], for which, in [9], the “inhibition of development of carcinogen-induced epidermoid carcinomas” value was “inhibit the development of carcinogen-induced epidermoid carcinomas, and in some cases to completely prevent their growth”.
As to `CC1=C(CC(=O)O)c2cc(F)ccc2/C1=C\c1ccc([S+](C)[O-])cc1` (stereo not drawn) [Sulindac, cis-5-fluoro-2-methyl-1-[p-(methyl-sulfinyl)benzylidene]indene-3-acetic acid], the “growth of colon tumors” value in the data set on colon tumors was “inhibits growth of colon tumors in animals”. For the same molecule, the “regression of colon polyps” value in the data set on colon polyps is on record as “cause regression of colon polyps in humans”.

Source of the values: patent US5834445A, “Process for preparing decolorized carotenoid-cyclodextrin complexes” (priority 1995, dated 1998).
